Results published in patent publication EP0129461B1, “Derivatives of isoindoledicarboxylic acids, their preparation and pharmaceutical compositions thereof” (ADIR, priority 1983, dated 1984).

System: angiotensine convertase
Experiment: Inhibition of circulating angiotensin convertase in the anaesthetised rat (protocol of D.M. Gross et al.), i.v. dosing
Type: in vivo
Conditions: I.V. dose inhibiting 50% of the activity of the angiotensine convertase present in the circulation
From the text: Les composés de l'invention ont été soumis à une étude pharmacologique chez le rat anesthésié selon le protocole décrit par D.M. GROSS et coll. [J. Phar- macol. and Exp. Ther. 216, 552-557, 1981 )].
La dose I.V. capable d'inhiber 50% de l'activité de l'angiotensine convertase présente dans la circulation (DE50) a été déterminée.

Compound	DE50
CCC[C@H](N[C@@H](C)C(=O)N1CC2CCCCC2[C@H]1C(=O)O)C(=O)OCC (stereo partly drawn) [III, [N-<(S)-éthoxycarbonyl-1 butyl)-(S) alanyl]-2 (S)-carboxy-1 perhydroisoindole, maléate]	0,020 mg/kg
CCC[C@H](N[C@@H](C)C(=O)N1Cc2ccccc2[C@H]1C(=O)O)C(=O)OCC [Exemple I]	0,022 mg/kg
CCC[C@H](N[C@@H](C)C(=O)N1Cc2ccccc2[C@@H]1C(=O)O)C(=O)OCC [II, (N-((S)-éthoxycarbonyl-1 butyl)-(S)alanyl]-2 (R)-carboxy-1 isoindoline]	0,170 mg/kg
CCC[C@H](N[C@@H](C)C(=O)N1CC2CCCCC2[C@@H]1C(=O)O)C(=O)OCC (stereo partly drawn) [Exemple IV, [N-<(S)-éthoxycarbonyl-1 butyl>-(S)alanyl]-2 (R)-carboxy-1 perhydroisoindole]	>300 mg/kg
